Patent US11357776B2, “Pharmaceutical combinations comprising a histone deacetylase inhibitor and an aurora kinase inhibitor and methods of use thereof” (ACETYLON PHARMACEUTICALS, INC., priority 2016, dated 2022)

What was measured:
[1] = test system: aurora kinase; details: aurora kinase isoform selectivity, Choudary et al. 2015; cited from earlier work
[2] = test system: Jeko-1 mantle cell lymphoma, SU-DHL-4 B cell lymphoma, and Jurkat T cell lymphoma cells; experiment: Annexin V / propidium iodide flow cytometry apoptosis assay; format: cell-based; details: 72 hours; 3 μM Compound B, 0.01 or 0.03 μM alisertib, alone or combined; single-agent effect in some cell lines only
Experimental: To test for induction of apoptosis, Jeko-1 mantle cell lymphoma, SU-DHL-4 B cell lymphoma, and Jurkat T cell lymphoma cells were treated for 72 hours with either: DMSO, 3 μM of Compound B, 0.01 μM of alisertib, 0.03 μM of alisertib, or a combination of both Compound B and alisertib for 72 hrs. Cells were then harvested and stained with Annexin V, which recognizes an epitope on cells in the early stages of apoptosis. Cells were also stained with propidium iodide, which is excluded from cells with intact membranes, thus marking only dead cells. Flow cytometry analysis was then performed to measure the number of healthy and apoptotic cells under each treatment condition.

[3] = test system: Jurkat T cell lymphoma cells; experiment: as above; format: cell-based; details: 72 hours, 3 μM Compound A or B, 0.01 μM alisertib, alone or combined
Experimental: To determine the extent that the combination therapies of Compound A/alisertib and Compound B/alisertib promote induction of apoptosis, Jurkat T cell lymphoma cells were treated with: DMSO, 3 μM of Compound B, 3 μM of Compound A, 0.01 μM of alisertib, a combination of Compound B/alisertib, or a combination of Compound A/alisertib, for 72 hours. Cells were then harvested and stained with Annexin V and propidium iodide as above. Flow cytometry analysis was then used to measure the number of healthy and apoptotic cells under each treatment condition.

[4] = test system: survivin, Aurora A, Aurora B, BubR1, CDC20 and MAD2L1 gene transcripts in H929 multiple myeloma cells; experiment: Microarray gene expression profiling of H929 cells; format: cell-based; details: H929 cells, 2, 3, or 4 μM, 24 hours or 48 hours, Affymetrix microarray
Experimental: Microarray gene expression profiling was performed in H929 multiple myeloma (MM) cells to determine whether key mitotic regulators are down regulated by […]. H929 multiple myeloma cells were treated for 24 hours or 48 hours with 2, 3, or 4 μM of Compound A. Total RNA was extracted from the cells and subjected to gene expression profiling using an Affymetrix microarray system (Santa Clara, Calif.).

[5] = test system: survivin, Aurora A, Aurora B, BubR1, CDC20 and MAD2L1 gene transcripts in H929 MM, U266 MM and Jeko-1 MCL cell lines; experiment: qPCR analysis of mitotic regulator downregulation across MM and MCL cell lines; format: cell-based; details: U266 MM and Jeko-1 MCL cells
Experimental: Independent qPCR validation of mitotic regulator downregulation by Compound A across MM and MCL cell lines was performed using H929 MM, U266 MM and Jeko-1 MCL cell lines. The cells were treated with Compound A. Total RNA was extracted and gene expression was measured by quantitative polymerase chain reaction (PCR) analysis.

For `O=C(Nc1c[nH]nc1-c1nc2cc(CN3CCOCC3)ccc2[nH]1)NC1CC1` [AT-9283], which Selectivity [1] is on record?
Its Selectivity is “Aurora A and Aurora B”.

Which “percentage of cells undergoing apoptosis” value [2] does the source give for `COc1cc(Nc2ncc3c(n2)-c2ccc(Cl)cc2C(c2c(F)cccc2OC)=NC3)ccc1C(=O)O` [Alisertib] here?
The value was “some induction of apoptosis”.

And the Selectivity [1]?
Its Selectivity is “Aurora A”.

And the “percentage of cells undergoing apoptosis” value [3]?
The value was “minimal induction of apoptosis”.

With `CCN(CCCOc1ccc2c(Nc3cc(CC(=O)Nc4cccc(F)c4)[nH]n3)ncnc2c1)CCOP(=O)(O)O` [Barasertib] as the compound, how does the Selectivity [1] read?
The Selectivity was “Aurora B”.

For `O=C(CCCCCCNC(=O)c1cnc(N(c2ccccc2)c2ccccc2)nc1)NO` [Compound A, 2-(diphenylamino)-N-(7-(hydroxyamino)-7-oxoheptyl)pyrimidine-5-carboxamide], which “expression of key mitotic regulatory genes (relative fold induction vs DMSO)” value [4] is on record?
Its value is “reduced the expression”.

And the “expression of key mitotic regulatory genes (relative to RPLP1, vs DMSO)” value [5]?
The value was “reduced the expression”.

And the “percentage of cells undergoing apoptosis” value [3]?
The value was “minimal induction of apoptosis”.

Which results are given for `O=C(CCCCCCNC(=O)c1cnc(N(c2ccccc2)c2ccccc2Cl)nc1)NO` [Compound B, 2-((2-chlorophenyl)(phenyl)amino)-N-(7-(hydroxyamino)-7-oxoheptyl)pyrimidine-5-carboxamide]?
percentage of cells undergoing apoptosis [2]: some induction of apoptosis; percentage of cells undergoing apoptosis [3]: minimal induction of apoptosis

For `CO[C@@H](C(=O)N1Cc2[nH]nc(NC(=O)c3ccc(N4CCN(C)CC4)cc3)c2C1)c1ccccc1` [Danusertib], which Selectivity [1] is on record?
The Selectivity was “Pan”.

Which Selectivity [1] does the source give for `Cc1cc(Nc2cc(N3CCN(C)CC3)nc(/C=C/c3ccccc3)n2)n[nH]1` [ENMD- 2076] here?
The Selectivity was “Aurora A”.

For `O=C(O)[C@]1(Cc2cccc(Nc3nccs3)n2)CC[C@@H](Oc2cccc(Cl)c2F)CC1` [MK-5108], which Selectivity [1] is on record?
Its Selectivity is “Aurora A”.

With `Cc1cc(Nc2ncc(F)c(N[C@H]3[C@@H](C(N)=O)[C@@H]4C=C[C@H]3C4)n2)ccc1N1CCN(C)CC1` [MSC 1992371A] as the compound, how does the Selectivity [1] read?
The Selectivity was “Pan”.

For `Cc1cc(Nc2cc(N3CCN(C)CC3)nc(Sc3ccc(NC(=O)C4CC4)cc3)n2)[nH]n1` [Tozasertib], which Selectivity [1] is on record?
The Selectivity was “Pan”.
